For 7 compounds, IC50 and Ki results are on record in ChEMBL document CHEMBL1909046, “DrugMatrix in vitro pharmacology data”.

Series [1] is described as follows: DRUGMATRIX: Sigma2 radioligand binding (ligand: [3H] Ifenprodil). The note with it: Not Active = under 50% inhibition at 10 µM. The class given is cell membranes, Rattus norvegicus, Wistar, Brain, Membrane.
Series [2] has as its target T1, C-C chemokine receptor type 4 (Homo sapiens, UniProt P51679). Also: in other assays of this panel Not Active means under 50% inhibition at 10 µM.
T1 sequence (P51679 whole entry): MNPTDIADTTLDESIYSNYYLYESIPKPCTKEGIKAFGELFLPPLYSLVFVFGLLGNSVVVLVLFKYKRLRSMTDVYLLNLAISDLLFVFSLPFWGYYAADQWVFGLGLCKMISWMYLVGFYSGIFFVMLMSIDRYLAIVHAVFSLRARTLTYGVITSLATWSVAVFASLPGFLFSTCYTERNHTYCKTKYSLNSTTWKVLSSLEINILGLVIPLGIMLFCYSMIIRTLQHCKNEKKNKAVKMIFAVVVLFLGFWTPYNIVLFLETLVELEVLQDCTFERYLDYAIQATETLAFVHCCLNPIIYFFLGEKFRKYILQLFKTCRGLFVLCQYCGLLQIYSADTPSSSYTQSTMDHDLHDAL
The class given is cell membranes, Membrane. The note with it: chem-1.

Series [3] concerns the target Sodium-dependent dopamine transporter (Homo sapiens, UniProt Q01959). Kind of series: DRUGMATRIX: Dopamine Transporter radioligand binding (ligand: [125I] RTI-55). The class given is cell membranes, CHO-K1, Membrane. To be noted: cho-k1; Not Active = under 50% inhibition at 10 µM.
A further series has as its target T2, Endothelin-1 receptor (Homo sapiens, UniProt P25101). Also: in other assays of this panel Not Active means under 50% inhibition at 10 µM.
T2 sequence (P25101 whole entry): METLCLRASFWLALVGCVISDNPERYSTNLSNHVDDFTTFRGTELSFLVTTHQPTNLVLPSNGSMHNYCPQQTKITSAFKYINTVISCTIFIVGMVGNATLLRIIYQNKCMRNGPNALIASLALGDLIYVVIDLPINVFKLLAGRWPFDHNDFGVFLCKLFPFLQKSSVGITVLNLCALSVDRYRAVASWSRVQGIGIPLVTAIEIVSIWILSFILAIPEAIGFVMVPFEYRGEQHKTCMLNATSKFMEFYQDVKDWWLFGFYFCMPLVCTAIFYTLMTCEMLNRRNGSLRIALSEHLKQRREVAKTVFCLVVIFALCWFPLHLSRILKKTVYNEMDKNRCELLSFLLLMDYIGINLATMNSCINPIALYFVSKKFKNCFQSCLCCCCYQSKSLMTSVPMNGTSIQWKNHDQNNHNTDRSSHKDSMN
The class given is cell membranes, Membrane. To be noted: cho-k1.

Series [4] can be described thus: DRUGMATRIX: GABAA, Flunitrazepam, Central radioligand binding (ligand: [3H] Flunitrazepam). The note with it: Not Active = under 50% inhibition at 10 µM. The class given is cell membranes, Rattus norvegicus, Wistar, Brain, Membrane.
Series [5] deals with T3, 3-hydroxy-3-methylglutaryl-coenzyme A reductase (Homo sapiens, UniProt P04035).
T3 sequence (P04035 whole entry): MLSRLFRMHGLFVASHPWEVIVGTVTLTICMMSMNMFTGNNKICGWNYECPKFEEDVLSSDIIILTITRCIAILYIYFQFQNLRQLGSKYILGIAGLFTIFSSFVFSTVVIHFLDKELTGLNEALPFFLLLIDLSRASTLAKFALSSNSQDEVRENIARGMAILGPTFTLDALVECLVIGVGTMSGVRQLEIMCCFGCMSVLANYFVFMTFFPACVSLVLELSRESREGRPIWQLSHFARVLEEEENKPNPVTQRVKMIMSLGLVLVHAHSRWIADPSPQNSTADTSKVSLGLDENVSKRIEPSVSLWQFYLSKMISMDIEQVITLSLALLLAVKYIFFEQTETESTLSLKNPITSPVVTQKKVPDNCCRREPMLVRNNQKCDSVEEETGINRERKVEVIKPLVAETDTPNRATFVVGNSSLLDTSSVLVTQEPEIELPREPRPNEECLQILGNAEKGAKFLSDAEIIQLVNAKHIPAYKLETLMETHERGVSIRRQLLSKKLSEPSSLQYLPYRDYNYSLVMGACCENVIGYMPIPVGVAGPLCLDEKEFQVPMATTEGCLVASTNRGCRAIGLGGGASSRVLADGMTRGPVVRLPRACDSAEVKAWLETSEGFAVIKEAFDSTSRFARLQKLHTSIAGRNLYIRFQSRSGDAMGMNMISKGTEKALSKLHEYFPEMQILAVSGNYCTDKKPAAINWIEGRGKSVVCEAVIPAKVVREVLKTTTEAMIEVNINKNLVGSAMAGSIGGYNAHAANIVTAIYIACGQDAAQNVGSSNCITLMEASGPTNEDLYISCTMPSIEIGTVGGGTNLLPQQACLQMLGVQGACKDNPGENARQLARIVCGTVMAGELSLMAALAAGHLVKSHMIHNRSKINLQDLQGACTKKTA
Set-up: species or system Escherichia coli.

In another series the target is Melanocortin receptor 4 (Homo sapiens, UniProt P32245). The class given is cell membranes, Membrane. The note with it: hek293. Also: in other assays of this panel Not Active means under 50% inhibition at 10 µM.
Series [6] has as its target Protein phosphatase 3 catalytic subunit alpha (Homo sapiens, UniProt Q08209). The arrangement: species or system Escherichia coli.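 Also: inhibition of calcineurin (PP2B) enzyme activity, measured with DiFMUP as the substrate; in other assays of this panel Not Active means under 50% inhibition at 10 µM.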
In series [7] the target is Epidermal growth factor receptor (Homo sapiens, UniProt P00533). As to the kind of experiment: DRUGMATRIX: Protein Tyrosine Kinase, EGF Receptor enzyme inhibition (substrate: Poly(Glu:Tyr)). The class given is cell-based, Insect cells. To be noted: Not Active = under 50% inhibition at 10 µM.
Another series has as its target Cytochrome P450 2D6 (Homo sapiens, UniProt P10635). To be noted: bti-tn-5b1-4. Also: in other assays of this panel Not Active means under 50% inhibition at 10 µM.

SMILES strings stand for the structures.

Chain of Epidermal growth factor receptor (P00533 whole entry): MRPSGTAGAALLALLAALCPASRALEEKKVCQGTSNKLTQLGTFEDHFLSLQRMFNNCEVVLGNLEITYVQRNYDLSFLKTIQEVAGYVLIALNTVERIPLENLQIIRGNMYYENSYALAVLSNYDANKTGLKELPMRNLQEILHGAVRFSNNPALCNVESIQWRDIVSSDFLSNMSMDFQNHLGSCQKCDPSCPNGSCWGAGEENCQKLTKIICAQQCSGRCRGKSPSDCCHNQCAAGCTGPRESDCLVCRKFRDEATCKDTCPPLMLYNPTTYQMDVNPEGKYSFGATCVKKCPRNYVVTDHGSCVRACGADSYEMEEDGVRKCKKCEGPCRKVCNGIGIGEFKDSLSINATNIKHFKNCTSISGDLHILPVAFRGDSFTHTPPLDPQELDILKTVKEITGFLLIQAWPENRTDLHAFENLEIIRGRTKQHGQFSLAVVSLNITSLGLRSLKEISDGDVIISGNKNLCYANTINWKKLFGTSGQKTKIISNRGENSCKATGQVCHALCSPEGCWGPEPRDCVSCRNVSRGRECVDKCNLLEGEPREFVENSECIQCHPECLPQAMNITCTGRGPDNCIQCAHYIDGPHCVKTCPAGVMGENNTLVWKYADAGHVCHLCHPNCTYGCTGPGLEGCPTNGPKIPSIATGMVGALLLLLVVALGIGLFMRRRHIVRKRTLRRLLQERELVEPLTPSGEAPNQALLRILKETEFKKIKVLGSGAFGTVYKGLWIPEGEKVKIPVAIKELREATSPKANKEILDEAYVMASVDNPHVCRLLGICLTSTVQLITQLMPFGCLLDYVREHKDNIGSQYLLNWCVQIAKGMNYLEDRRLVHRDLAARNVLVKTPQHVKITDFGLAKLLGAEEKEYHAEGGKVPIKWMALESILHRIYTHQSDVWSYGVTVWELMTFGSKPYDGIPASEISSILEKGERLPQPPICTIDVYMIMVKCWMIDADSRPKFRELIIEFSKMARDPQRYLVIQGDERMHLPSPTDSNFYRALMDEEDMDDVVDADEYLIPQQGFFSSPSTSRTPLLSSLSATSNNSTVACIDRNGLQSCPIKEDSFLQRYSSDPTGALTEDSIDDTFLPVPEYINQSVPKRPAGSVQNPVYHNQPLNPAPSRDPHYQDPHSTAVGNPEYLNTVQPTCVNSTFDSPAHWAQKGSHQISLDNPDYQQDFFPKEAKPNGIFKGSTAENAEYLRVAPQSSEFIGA
Chain of Cytochrome P450 2D6 (P10635 whole entry): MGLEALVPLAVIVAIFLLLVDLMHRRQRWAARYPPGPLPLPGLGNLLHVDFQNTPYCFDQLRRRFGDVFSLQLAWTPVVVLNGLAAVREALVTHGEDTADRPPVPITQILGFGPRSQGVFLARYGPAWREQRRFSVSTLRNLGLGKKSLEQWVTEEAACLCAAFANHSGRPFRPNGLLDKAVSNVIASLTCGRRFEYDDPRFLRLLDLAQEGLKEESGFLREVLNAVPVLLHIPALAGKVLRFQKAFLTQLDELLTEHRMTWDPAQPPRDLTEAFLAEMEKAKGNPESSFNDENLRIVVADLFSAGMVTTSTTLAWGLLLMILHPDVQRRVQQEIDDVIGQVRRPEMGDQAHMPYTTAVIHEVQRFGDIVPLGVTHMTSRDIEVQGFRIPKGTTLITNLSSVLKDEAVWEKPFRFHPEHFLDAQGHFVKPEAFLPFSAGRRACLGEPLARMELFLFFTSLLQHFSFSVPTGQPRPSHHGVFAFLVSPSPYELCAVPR
Chain of Sodium-dependent dopamine transporter (Q01959 whole entry): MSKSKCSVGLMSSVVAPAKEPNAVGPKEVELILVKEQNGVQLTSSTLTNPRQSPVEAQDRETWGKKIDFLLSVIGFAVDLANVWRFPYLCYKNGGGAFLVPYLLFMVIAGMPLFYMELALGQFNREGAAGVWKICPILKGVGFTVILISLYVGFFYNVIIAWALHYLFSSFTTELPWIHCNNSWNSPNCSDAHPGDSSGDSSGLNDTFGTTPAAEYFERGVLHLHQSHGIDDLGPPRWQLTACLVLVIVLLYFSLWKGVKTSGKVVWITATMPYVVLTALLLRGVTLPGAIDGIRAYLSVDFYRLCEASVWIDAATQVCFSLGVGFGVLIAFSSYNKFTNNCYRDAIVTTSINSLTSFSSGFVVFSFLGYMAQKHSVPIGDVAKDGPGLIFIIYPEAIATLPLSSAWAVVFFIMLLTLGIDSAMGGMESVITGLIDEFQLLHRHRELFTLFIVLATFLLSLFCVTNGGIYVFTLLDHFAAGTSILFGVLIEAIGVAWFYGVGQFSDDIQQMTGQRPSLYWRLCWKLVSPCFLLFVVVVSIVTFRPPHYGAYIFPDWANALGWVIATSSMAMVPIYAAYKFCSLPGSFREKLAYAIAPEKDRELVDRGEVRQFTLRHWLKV
Chain of Melanocortin receptor 4 (P32245 whole entry): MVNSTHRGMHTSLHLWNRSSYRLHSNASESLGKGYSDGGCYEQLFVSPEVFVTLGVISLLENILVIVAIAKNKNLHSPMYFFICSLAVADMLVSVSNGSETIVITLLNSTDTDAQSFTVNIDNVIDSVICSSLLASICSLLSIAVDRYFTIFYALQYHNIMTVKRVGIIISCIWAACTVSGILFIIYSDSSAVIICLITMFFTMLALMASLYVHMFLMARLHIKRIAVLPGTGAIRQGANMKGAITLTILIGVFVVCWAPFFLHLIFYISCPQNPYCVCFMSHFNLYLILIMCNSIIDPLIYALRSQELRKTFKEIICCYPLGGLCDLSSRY

Consider `O=C1CCC(N2C(=O)c3ccccc3C2=O)C(=O)N1` (stereo unspecified) [THALIDOMIDE], for which the half-inhibitory concentration (IC50) entry (in series [1]; in [2]; in series [3]; against Endothelin-1 receptor; in series [4]; in [5]) was “Not Active” in each case. The IC50 entry (on Melanocortin receptor 4; in series [6]; in series [7] (insect cells); on Cytochrome P450 2D6) was “Not Active” throughout. Moreover, the Ki result (in series [1]; in series [4]; at Cytochrome P450 2D6) was “Not Active” in each case.

As to `Cc1cccc(Nc2ccncc2S(=O)(=O)NC(=O)NC(C)C)c1` [TORSEMIDE], the IC50 entry (in [1]; in series [2]; in series [3]; on Endothelin-1 receptor; in [4]; in [5]) was “Not Active” each time. The concentration for half-maximal inhibition (IC50) entry (against Melanocortin receptor 4; in series [6]; in series [7] (insect cells); at Cytochrome P450 2D6) was “Not Active” throughout. Moreover, the Ki result (in [1]; in series [4]; on Cytochrome P450 2D6) was “Not Active” throughout.

As to `CC(C)C[C@H](NC(=O)[C@@H](O)[C@H](N)Cc1ccccc1)C(=O)O` [UBENIMEX], the 50% inhibitory concentration (IC50) result (in [1]; in series [2]; in [3]; at Endothelin-1 receptor; in series [4]; in [5]) was “Not Active” throughout. For the same compound, the concentration for half-maximal inhibition (IC50) result (against Melanocortin receptor 4; in series [6]; in series [7] (insect cells); against Cytochrome P450 2D6) was “Not Active” in each case. The Ki entry (in [1]; in series [4]; at Cytochrome P450 2D6) was “Not Active” each time.

Consider `Cc1onc(-c2ccccc2)c1-c1ccc(S(N)(=O)=O)cc1` [VALDECOXIB], for which the concentration for half-maximal inhibition (IC50) entry (in series [1]; in [2]; in series [3]; in series [4]; in [5]; at Melanocortin receptor 4) was “Not Active” in each case. Further, the IC50 entry (in series [6]; in series [7] (insect cells); at Cytochrome P450 2D6) was “Not Active” throughout. Moreover, the Ki result (in [1]; on Endothelin-1 receptor; in [4]; on Cytochrome P450 2D6) was “Not Active” each time.

Regarding `CC[C@]1(O)C[C@@H]2CN(CCc3c([nH]c4ccccc34)[C@@](C(=O)OC)(c3cc4c(cc3OC)N(C)[C@H]3[C@@](O)(C(=O)OC)[C@H](OC(C)=O)[C@]5(CC)C=CCN6CC[C@]43[C@@H]65)C2)C1` [VINBLASTINE], the half-inhibitory concentration (IC50) result (in series [1]; in series [2]; in series [3]; against Endothelin-1 receptor; in series [4]; in series [5]) was “Not Active” each time. The IC50 entry (against Melanocortin receptor 4; in series [6]; in series [7] (insect cells); against Cytochrome P450 2D6) was “Not Active” throughout. Also, the Ki result (in series [1]; in [4]; on Cytochrome P450 2D6) was “Not Active” throughout.

As to `CC(=O)CC(c1ccccc1)c1c(O)c2ccccc2oc1=O` (stereo unspecified) [WARFARIN], the IC50 entry (in series [1]; in series [2]; in series [3]; against Endothelin-1 receptor; in series [4]; in [5]) was “Not Active” throughout. Also, the half-inhibitory concentration (IC50) entry (on Melanocortin receptor 4; in [6]; in series [7] (insect cells); against Cytochrome P450 2D6) was “Not Active” each time. The Ki result (in series [1]; in series [4]; on Cytochrome P450 2D6) was “Not Active” in each case.

As for `[Cl-].[Cl-].[Zn+2]` [ZINC CHLORIDE], the IC50 entry (in series [1]; in series [2]; in series [3]; at Endothelin-1 receptor; in series [4]; in series [5]) was “Not Active” throughout. In addition, the 50% inhibitory concentration (IC50) result was “Not Active” on Melanocortin receptor 4, 1100 nM in series [6] (read-out: IC50), 2190 nM in [7] (read-out: IC50) and “Not Active” on Cytochrome P450 2D6. In addition, the Ki result (in series [1]; in series [4]; on Cytochrome P450 2D6) was “Not Active” each time.

In general, IC50 refers to the concentration that gives 50% inhibition.
